Laboratory results taken from patent publication US20040019092A1, “Non-peptide somatostatin receptor ligands” (priority 2001, published 2004).
Where “and” joins values, the source holds several entries; their conditions need not be identical. Identical values can stand only once.

Experiments:
[1] = Unidirectional brain extraction (Brain Uptake Index), single intracarotid injection; format: in vivo, Wistar rats; details: rat, 5 s after intracarotid injection, Ringer buffer as vehicle
Procedure: The unidirectional influx for [^14C]-42 was measured by the brain sampling single injection technique in adult male Wistar rats (˜220 g) under anesthesia (ketamine 130 mg/kg i.m., xylazine 1.3 mg/kg i.m.) (Oldendorf, W. H. “Measurement of brain uptake of radiolabeled substances using tritiated water internal standard” Brain Res., 1970, 24, 372-376). A bolus of ˜220 μL 0.001 M HEPES-buffered Ringer's solution pH 7.4, or rat plasma, was rapidly injected into the common carotid artery. The bolus contained [^14C]-42 (68 μg/mL) together with tritiated water (25 μCi/mL); the amount of ethanol in the injectate was 1% (v/v). The animals were decapitated 5 seconds after the injection. […] The percentage BUI (Brain Uptake Index) was calculated as […]
The brain extraction ratio E was calculated from E=BUI*0.62, where 0.62 represents the brain extraction ratio of tritiated water (Pardridge, W. M. et al. “Absence of albumin receptor on brain capillaries in vivo or in vitro” Am. J. Physiol, 1985, 249, E264-E267). In order to quantify a possible sequestration of [^14C]-42 by the brain microvasculature, the brain hemispheres of 3 rats were submitted to capillary depletion (Triguero, D, et al. “Capillary depletion method for quantifying the blood-brain barrier transcytosis of circulating peptides and plasma proteins” J. Neurochem, 1990, 54, 1882-1888). […]

[2] = Urinary excretion and metabolite patterns in blood and urine; format: in vivo, rat; details: for Urinary excretion of parent drug: underestimates (urine lost)
Procedure: Metabolite patters were determined in blood extracts and in urine. Blood was pooled from the 3 intravenously dosed rats of the pharmacokinetic study and from 3 additional rats treated in the same way. Urine was obtained from the animals of the pharmacokinetic study.
Between 0.3 and 0.6 mL of pooled diluted blood were spiked with 10-20 μg unlabeled compound 42-ch, extracted with 10 mL of methanol (HPLC grade, Rathburn) by sonication and centrifuged. The pellet was extracted once more in the same way. The two supernatants were combined and evaporated under reduced pressure at 35° C. on a rotary evaporator. The residue was transferred into a smaller vial by means of methanol and water, evaporated under a stream of nitrogen and taken up in 80 μl methanol and 320 μl water or in 120 μl methanol and 280 μl water by sonication. The suspension was centrifuged and a 300 μl aliquot of the supernatant was injected onto the HPLC column. The extraction yield of radioactivity was only 45±12% (mean ISD).
To urine samples, acetonitrile (˜5% v/v), TFA (to obtain a pH of ˜3) and unlabeled compound 42-ch (˜4 μg per volume analyzed) were added. The mixtures were centrifuged and 1-2 mL of supernatant were injected onto the HPLC column.
The chromatography was performed using HP 1090 liquid chromatograph (Hewlett-Packard). The radioactivity of the column eluate was measured by liquid scintillation counting either off-line or on-line using a Berthold LB 507A radioactivity monitor. The samples were chromatographed on a reversed-phase column (Nucleosil 100, C18AB, 250×4.6 mm, 5 μm particle size, Macherey-Nagel) protected by a corresponding 8×4 mm precolumn. The column temperature was 40° C. The components were eluted with a gradient of 0.02% v/v trifluoroacetic acid (TFA, Pierce) in water (mobile phase A, pH 2.8) versus acetonitrile (HPLC grade S, Rathburn; mobile phase B). The proportion of solvent B was kept at 5% up to 5 minutes after injection and was then increased in linear segments to 40% at 110 minutes and 100% at 120 minutes where it was kept for another 10 minutes. The total flow rate was 1 mL/min. The unlabeled parent drug, added as a retention time marker, was monitored by UV detection at 216 nm.

SMILES: N#Cc1cc(S(=O)(=O)N2C(=O)N(CCCCCN)C(=O)C2Cc2c[nH]c3ccccc23)ccc1Oc1ccc(N)cc1 (stereo not drawn) [Compound 42]
- unidirectional brain extraction (BUI experiments), Ringer buffer [1]: 41%
- Urinary excretion of parent drug ([2]; 0-48 hours after single intravenous 1 mg/kg [^14C]-42, individual animals, 1 mg/kg): 0.96 % of dose and 1.98 % of dose and 1.97 % of dose
- Urinary excretion of parent drug ([2]; 0-48 hours after single intravenous 1 mg/kg [^14C]-42, mean of 3 animals): 1.64 % of dose
- Urinary excretion of parent drug ([2]; 0-48 hours after single oral 10 mg/kg [^14C]-42, individual animals, 10 mg/kg): 0.001 % of dose and 0.053 % of dose and 0.114 % of dose
- Urinary excretion of parent drug ([2]; 0-48 hours after single oral 10 mg/kg [^14C]-42, mean of 3 animals): 0.056 % of dose
- drug-related material in blood ([2]; rat blood extracts after intravenous dosing): mainly of unchanged drug
